Experimental data reported in paper PMC8329197, “Compounds targeting OSBPL7 increase ABCA1-dependent cholesterol efflux preserving kidney function in two models of kidney disease” (Nature Communications, 2021).
Where “and” joins values, the source holds several entries; their conditions need not be identical. Equal values may be shown once.

Legend:
human podocytes = experiment: apoAI-mediated cholesterol efflux in human podocytes; type: cell-based; settings: for ApoA1-mediated cholesterol efflux (%) in podocytes: single experiments
Description: Cell lines were purchased from ATCC and subcultured for no more than passage 15, except for human podocytes, which were originally from Dr Jochen Reiser. Conditionally immortalized human podocytes were cultured under permissive conditions at 33 °C, in RPMI medium (Corning) containing 10% FBS (GIBCO), 1% penicillin/streptomycin, 0.01 mg/ml recombinant human insulin, 0.0055 mg/ml human transferrin (substantially iron-free), and 0.005 μg/ml sodium selenite (ITS, Corning). To induce differentiation, podocytes were cultured at 37 °C for 14 days in RPMI medium containing 10% FBS (GIBCO) and 1% penicillin/streptomycin. Differentiated podocytes were starved in RPMI-0.2% FBS for 18 h and then treated with 1 μM, 5 μM, and 10 μM of compounds freshly prepared in DMSO for 18 h at 37 °C as indicated.
Human podocytes differentiated for 13 days were labeled for 24 h at 37 °C in RPMI medium containing 2% FBS and [^3H]-cholesterol (1 μCi/ml, American Radiolabeled Chemicals). Cells were then washed 3 times with PBS and incubated with RPMI supplemented with 0.2% fat free-BSA (Sigma) with or without compounds for 18-h at 37 °C. The compounds were used at the following concentrations: Cpd C (1 μM), Cpd A (1 μM, 5 μM) and Cpd G (1 μM, 5 μM, 10 μM). Following the 18-h incubation, human apoAI (Calbiochem) was added to the media, (20 μg/mL final concentration) and the cells were incubated for another 18 h at 37 °C. Aliquots of medium collected before (T = 0 h) and after (T = 18 h) the addition of apoAI were centrifuged at 12,000 × g for 5 min and the radioactivity in the supernatant was counted by liquid scintillation. Cells were then washed with PBS, lysed 0.1% SDS, 0.1M NaOH and the radioactivity in the lysates was quantified by liquid scintillation. apoAI-mediated cholesterol efflux, expressed as %, was calculated as the amount of label released to the medium after adding apoAI (the difference in radioactivity in the medium before and after adding ApoA1) divided by the amount of total label in each well (radioactivity released to the media plus radioactivity in the lysed cells).

[1] = system: Adriamycin (ADR)-induced nephropathy in Balb/c mice; experiment: ADR nephropathy: serum cholesterol and triglycerides; type: in vivo, mouse
[2] = system: Adriamycin (ADR)-induced nephropathy in Balb/c mice; experiment: ADR nephropathy: WBC, hemoglobin, hematocrit, ALT, AST; type: in vivo, mouse; settings: ADR-induced nephropathy
[3] = system: Adriamycin (ADR)-induced nephropathy in Balb/c mice; experiment: ADR nephropathy: blood urea nitrogen (BUN) and serum creatinine; type: in vivo, mouse; settings: 28 days treatment
Text: Supplement 41467_2021_24890_MOESM5_ESM.xlsx, sheet "Supplementary Table 4" | column: ADR+ Cpd A; ADR+ Cpd G; ADR+ Cpd C

[4] = ADR-injected mice, 28-day treatment, 25th quartile
[5] = ADR-injected mice, 28-day treatment, 75th quartile
[6] = ADR-injected mice, 28-day treatment, group maximum
[7] = ADR-injected mice, 28-day treatment, group median
[8] = ADR-injected mice, 28-day treatment, group minimum
[9] = ADR-injected mice, 28-day treatment, individual mouse values
[10] = 28 days treatment, 25th quartile
[11] = 28 days treatment, 75th quartile
[12] = 28 days treatment, group maximum
[13] = 28 days treatment, group median
[14] = 28 days treatment, group minimum
[15] = 28 days treatment, individual mouse values

In the case of `O=C(N[C@@H]1CCCC[C@H]1O)c1ccc(OCC(F)(F)F)c(-c2ccc(Cl)c(Cl)c2)n1` [Cpd A], the “ApoA1-mediated cholesterol efflux (%) in podocytes” value (human podocytes; 1 uM) is reported as 4.2% and 0.9% and 3.2% and 3.5% and 3.7%, the “ApoA1-mediated cholesterol efflux (%) in podocytes” value (human podocytes; 5 uM) is reported as 3.3% and 4.4% and 1.5% and 3.7% and 2.4% and 6.4% and 7.6% and 3.5% and the “Increase in apoAI-mediated cholesterol efflux vs. untreated cells” value (human podocytes; Cpd G 10 µM, Cpd A 5 µM, Cpd C 1 µM) is reported as roughly 2 fold. For the same molecule, the “SERUM CHOLESTEROL” value ([1]; ADR model, individual animals) was 96 and 91 and 87 and 95 and 159 and 122 and 71 and 90 and 81 and 77, the “SERUM TRIGLYCERIDES” value ([1]; ADR model, individual animals) was 108 and 116 and 127 and 60 and 44 and 80 and 53 and 54 and the “Serum cholesterol, QR(25)” value [1, 4] was 87 mg/dL. The “Serum triglycerides, QR(25)” value [1, 4] was 55.5 mg/dL, the “Serum cholesterol, QR(75)” value [1, 5] was 96 mg/dL and the “Serum triglycerides, QR(75)” value [1, 5] was 116 mg/dL. The “Serum cholesterol, Max” value [1, 6] was 159 mg/dL, the “Serum triglycerides, Max” value [1, 6] was 127 mg/dL and the “Serum cholesterol, Median” value [1, 7] was 91 mg/dL. The “Serum triglycerides, median” value [1, 7] was 94 mg/dL, the “Serum cholesterol, Min” value [1, 8] was 71 mg/dL and the “Serum triglycerides, Min” value [1, 8] was 44 mg/dL. For the same molecule, the SERUM CHOLESTEROL [1, 9] was 91 mg/dL and 87 mg/dL and 95 mg/dL and 159 mg/dL and 122 mg/dL and 71 mg/dL and 90 mg/dL and 77 mg/dL and 96 mg/dL, the SERUM TRIGLYCERIDES [1, 9] was 44 mg/dL and 80 mg/dL and 53 mg/dL and 54 mg/dL and 108 mg/dL and 116 mg/dL and 127 mg/dL and 60 mg/dL and the “Animals with sporadically high cholesterol levels (>122 mg/dL)” value ([1]; plasma, 28 days of treatment, ADR-challenged) was 10%. For the same molecule, the “Cholesterol (mg/dL), Median(IQR)” value ([1]; serum, after ADR challenge) was 91(80-159) mg/dL, the “Cholesterol (mg/dL), Range” value ([1]; serum, after ADR challenge) was 71 to 159 mg/dL and the “Cholesterol, % of the group> 112 mg/dL” value ([1]; serum, after ADR challenge) was 10%. The “Triglycerides (mg/dL), Median(IQR)” value ([1]; serum, after ADR challenge) was 94(54-116) mg/dL, the “Triglycerides (mg/dL), Range” value ([1]; serum, after ADR challenge) was 44 to 127 mg/dL and the “ALT, Median (IQR)” value [2] was 256 (90.3-625) U/L. The “ALT, Range” value [2] was 88-766 U/L, the “AST, Median (IQR)” value [2] was 326 (213-500) U/L and the “AST, Range” value [2] was 200-685 U/L. For the same molecule, the “HTC, Median (IQR)” value [2] was 54 (50-56) %, the “HTC, Range” value [2] was 47-62% and the Hgb, Median (IQR) [2] was 13.6 g/dL. For the same molecule, the Hgb, Range [2] was 12.1 to 15.5 g/dL, the “WBC, Range” value [2] was 3.7-7.0 x103cells/µL and the “ALT, QR(25)” value [2, 10] was 130.75 U/L. The “AST, QR(25)” value [2, 10] was 232.75 U/L, the “HTC, QR(25)” value [2, 10] was 51.25% and the Hgb, QR(25) [2, 10] was 13.1 g/dL. For the same molecule, the “WBC, QR(25)” value [2, 10] was 3.925 x 10^3 cells/ul, the “ALT, QR(75)” value [2, 11] was 499.25 U/L and the “AST, QR(75)” value [2, 11] was 421.5 U/L. For the same molecule, the “HTC, QR(75)” value [2, 11] was 55.5%, the Hgb, QR(75) [2, 11] was 13.9 g/dL and the “WBC, QR(75)” value [2, 11] was 7.375 x 10^3 cells/ul. The “ALT, Max” value [2, 12] was 766 U/L, the “AST, Max” value [2, 12] was 685 U/L and the “HTC, Max” value [2, 12] was 62%. For the same molecule, the Hgb, Max [2, 12] was 15.5 g/dL, the “WBC, Max” value [2, 12] was 8.2 x 10^3 cells/ul and the “ALT, Median” value [2, 13] was 256.5 U/L. The “AST, Median” value [2, 13] was 326 U/L, the “HTC, Median” value [2, 13] was 54% and the Hgb, Median [2, 13] was 13.6 g/dL. For the same molecule, the “WBC, Median” value [2, 13] was 5.5 x 10^3 cells/ul, the “ALT, Min” value [2, 14] was 88 U/L and the “AST, Min” value [2, 14] was 200 U/L. The “HTC, Min” value [2, 14] was 47%, the Hgb, Min [2, 14] was 12.1 g/dL and the “WBC, Min” value [2, 14] was 3.7 x 10^3 cells/ul. For the same molecule, the “Alanine Aminotransferase (ALT)” value [2, 15] was 766 U/dL and 263 U/dL and 250 U/dL and 88 U/dL and 91 U/dL and 578 U/dL, the “Aspartate Aminotransferase (AST)” value [2, 15] was 685 U/dL and 372 U/dL and 280 U/dL and 200 U/dL and 217 U/dL and 438 U/dL and the “Hematocrit HTC” value [2, 15] was 58% and 54% and 62% and 47% and 56% and 52% and 48% and 51%. The “White Blood Cells WBC” value [2, 15] was 7.7 x 10^3 cells/ul and 8.2 x 10^3 cells/ul and 4.7 x 10^3 cells/ul and 3.8 x 10^3 cells/ul and 4.3 x 10^3 cells/ul and 3.7 x 10^3 cells/ul and 7 x 10^3 cells/ul and 6.3 x 10^3 cells/ul and 7.5 x 10^3 cells/ul, the “BUN, QR(25)” value ([3]; 25th quartile) was 16 mg/dL and the “sCre, QR(25)” value ([3]; 25th quartile) was 0.11 mg/dL. The “BUN, QR(75)” value ([3]; 75th quartile) was 17.75 mg/dL, the “sCre, QR(75)” value ([3]; 75th quartile) was 0.135 mg/dL and the “BUN, Max” value ([3]; group maximum) was 23 mg/dL. For the same molecule, the “sCre, Max” value ([3]; group maximum) was 0.17 mg/dL, the “BUN, Median” value ([3]; group median) was 17 mg/dL and the “sCre, Median” value ([3]; group median) was 0.115 mg/dL. The “BUN, Min” value ([3]; group minimum) was 13 mg/dL, the “sCre, Min” value ([3]; group minimum) was 0.08 mg/dL and the “Blood Urea nitrogen (BUN)” value ([3]; individual mouse values) was 17 mg/dL and 23 mg/dL and 18 mg/dL and 19 mg/dL and 16 mg/dL and 15 mg/dL and 13 mg/dL. The “Serum Creatinine sCre” value ([3]; individual mouse values) was 0.12 mg/dL and 0.08 mg/dL and 0.17 mg/dL and 0.1 mg/dL and 0.15 mg/dL and 0.11 mg/dL and 0.14 mg/dL.
